Earlier results in patent publication US9834484B1, “Plant enhancer and a method of using the same” (priority 2016, dated 2017).

Tested on: tumor growth
Details: some studies show

## β-glucan
  inhibits tumor growth: more than 95%
